Experimental data from paper PMC8311653, “Design, Synthesis, In Vitro and In Vivo Characterization of Selective NKCC1 Inhibitors for the Treatment of Core Symptoms in Down Syndrome” (Journal of Medicinal Chemistry, 2021).

Experiments:
[1] = biological target: T1, NKCC1 (Homo sapiens, UniProt P55011); assay: Cl- influx assay in NKCC1-transfected HEK293 cells; format: cell-based; settings: for inhibition at 10 µM: HEK293, read-out: Inhibition 10 μM Cl- influx (%); for inhibition at 100 µM: HEK293, read-out: Inhibition 100 μM Cl- influx (%)
T1 construct: host or cells: HEK293
T1 sequence (P55011 1-1212): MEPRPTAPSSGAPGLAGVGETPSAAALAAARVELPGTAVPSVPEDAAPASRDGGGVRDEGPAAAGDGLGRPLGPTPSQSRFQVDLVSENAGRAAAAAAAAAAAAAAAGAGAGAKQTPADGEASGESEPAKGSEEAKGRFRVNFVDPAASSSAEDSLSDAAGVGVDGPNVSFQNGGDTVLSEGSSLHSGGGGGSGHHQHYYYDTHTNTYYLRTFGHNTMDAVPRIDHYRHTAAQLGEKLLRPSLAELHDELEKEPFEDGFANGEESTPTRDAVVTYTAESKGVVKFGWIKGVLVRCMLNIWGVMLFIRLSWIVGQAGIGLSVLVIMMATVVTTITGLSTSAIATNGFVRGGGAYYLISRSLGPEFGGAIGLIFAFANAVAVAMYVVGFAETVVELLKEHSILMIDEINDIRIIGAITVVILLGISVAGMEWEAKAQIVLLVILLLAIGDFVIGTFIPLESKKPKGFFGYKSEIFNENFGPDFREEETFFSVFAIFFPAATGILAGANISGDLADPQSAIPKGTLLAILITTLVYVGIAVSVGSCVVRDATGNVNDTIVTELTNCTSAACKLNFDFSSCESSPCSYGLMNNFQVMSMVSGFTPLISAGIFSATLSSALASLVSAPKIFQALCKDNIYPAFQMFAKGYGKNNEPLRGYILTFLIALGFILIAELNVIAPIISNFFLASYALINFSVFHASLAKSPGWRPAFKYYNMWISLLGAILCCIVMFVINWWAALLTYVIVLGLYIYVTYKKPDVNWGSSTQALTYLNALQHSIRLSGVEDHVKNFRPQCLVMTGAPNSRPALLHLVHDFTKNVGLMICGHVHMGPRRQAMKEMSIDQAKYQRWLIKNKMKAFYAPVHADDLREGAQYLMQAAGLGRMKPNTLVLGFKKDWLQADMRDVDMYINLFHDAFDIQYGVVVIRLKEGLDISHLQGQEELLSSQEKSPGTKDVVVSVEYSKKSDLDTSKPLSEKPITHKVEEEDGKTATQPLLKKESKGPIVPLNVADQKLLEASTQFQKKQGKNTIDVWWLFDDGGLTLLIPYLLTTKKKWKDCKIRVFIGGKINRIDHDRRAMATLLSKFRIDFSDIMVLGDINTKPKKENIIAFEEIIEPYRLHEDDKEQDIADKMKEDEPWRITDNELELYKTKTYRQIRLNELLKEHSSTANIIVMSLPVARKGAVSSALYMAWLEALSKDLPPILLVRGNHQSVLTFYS
Experimental: HEK293 cells were cultured in Dulbecco’s modified Eagle’s medium (DMEM) supplemented with 10% fetal bovine serum, 1% L-glutamine, 100 U/mL penicillin, and 100 μg/mL streptomycin and maintained at 37 °C in a 5% CO2 humidified atmosphere. To assess NKCC1 and NKCC2 activity (Cl^– influx assay), 3 million HEK cells were plated in a 10 cm cell-culture dish and transfected with a transfection mixture comprising 5 mL of DMEM, 4 mL of Opti-MEM, 8 μg of DNA plasmid coding for NKCC1 (PRK-NKCC1 obtained from Medical Research Council and the University of Dundee), NKCC2 (OriGene plasmid #RC216145) subcloned in PRK5 plasmid, or mock control (empty vector), together with 8 μg of a plasmid coding for the Cl^–-sensitive variant of the membrane-targeted fluorescent protein YFP, mbYFPQS (Addgene plasmid #80742),[53] and 32 μL of Lipofectamin 2000. To assess KCC2 activity (Tl influx assay), cells were transfected with 8 μg of KCC2[54] subcloned in the PRK5 plasmid or mock control (empty vector) and 16 μL of Lipofectamin 2000. After 4 h, the cells were collected and plated in 96-well black-walled, clear-bottomed plates at a density of 2.5 × 10^4. After 48 h, cells were used for the Cl^– or Tl influx assays. All reagents were purchased from Life Technologies, unless otherwise specified.
Transfected cells were treated with 10 μM or 100 μM bumetanide (as positive controls), DMSO (as the negative control), or with each of our compounds in 100 μL/well of a Cl^–-free hypotonic solution (67.5 mM Na^+ gluconate, 2.5 mM K^+ gluconate, 15 mM HEPES pH 7.4, 50 mM glucose, 1 mM Na2HPO4, 1 mM NaH2PO4, 1 mM MgSO4, and 1 mM CaSO4). After 30 min of incubation, plates were loaded into a Victor 3V (PerkinElmer) multiplate reader equipped with an automatic liquid injector system, and fluorescence of Cl^–-sensitive mbYFPQS was recorded with excitation at 485 nm and emission at 535 nm. For each well, fluorescence was first recorded for 20 s of the baseline and for 60 s after delivery of a NaCl concentrated solution (74 mM final concentration in the assay well). Fluorescence of Cl^–-sensitive mbYFPQS is inversely correlated to the intracellular Cl^– concentration;[53] therefore, chloride influx into the cells determined a decrease in mbYFPQS fluorescence. To represent the fluorescent traces in time, we normalized the fluorescence value for each time point to the average of the fluorescence value of the first 20 s of the baseline (ΔF/F0). To quantify the average effects as represented by the bar plots, we expressed the decrease in fluorescence upon NaCl application as the average of the last 10 s of ΔF/F0 normalized traces. Moreover, for each experiment, to account for the contribution of Cl^– changes that were dependent on transporters/exchangers other than NKCC1 or NKCC2, we subtracted the value of the last 10 s of ΔF/F0 normalized traces obtained from mock-transfected cells (either control or treated) from the respective ΔF/F0 value obtained from the cells transfected with NKCC1 or NKCC2. We then presented in the figures all the data as a percentage of the fluorescence decrease versus the value of the control DMSO.

[2] = test system: WT and Ts65Dn mice; assay: Diuresis analysis in metabolic cages; settings: 0.6 mg kg-1 ip; adult WT and Ts65Dn mice; vs vehicle-treated mice
Experimental: A veterinarian was employed to maintain the health and comfort of the animals. Mice were housed in filtered cages in a temperature-controlled room with a 12:12 h dark/light cycle and with ad libitum access to water and food. All efforts were made to minimize animal suffering and use the lowest possible number of animals required to produce statistical relevant results, according to the “3Rs concept”. In this study, we used Ts65Dn mice maintained in their original genetic background[57] by crossing (more than 40 times) Ts65Dn female to C57BL/6JEi × C3SnHeSnJ (B6EiC3) F1 males (Jackson Laboratories). Ts65Dn mice were genotyped by PCR as previously described.[58] Only males were used for behavioral experiments. Ts65Dn and controls were randomly assigned to vehicle groups (2% DMSO in saline), bumetanide (Sigma, 0.6 mg kg^–1 body weight), or 40 (0.6 mg kg^–1 body weight) and treated daily for ∼21 days by intraperitoneal injection (i.p.). On the day of behavioral testing, injection was performed 1 h before the task began.

**Q.** What does the source list for `CN(C)S(=O)(=O)c1cc(C(=O)O)ccc1NCCCCCCCC(F)(F)F` [Compound 1, 3-(-N,N-Dimethylsulfamoyl)-4-(8,8,8-trifluorooctylamino)benzoic Acid]?
**A.** inhibition at 10 µM [1]: 37.1 ± 5%; inhibition at 100 µM [1]: 88.5 ± 1.7%

**Q.** How did the “diuretic effect (urine volume collected for 2 h)” value [2] turn out when `CN(C)S(=O)(=O)c1cc(C(=O)O)c(O)cc1NCCCCCCCC(F)(F)F` [Compound 40, 5-(N,N-Dimethylsulfamoyl)-2-hydroxy-4-((8,8,8-trifluorooctyl)amino)benzoic Acid] was run?
**A.** did not induce any significant diuresis

**Q.** Which “diuretic effect (urine volume collected for 2 h)” value [2] does the source give for `CCCCNc1cc(C(=O)O)cc(S(N)(=O)=O)c1Oc1ccccc1` [bumetanide, reference compound] here?
**A.** significantly increased the urine volume

**Q.** And the inhibition at 10 µM [1]?
**A.** 58.8 ± 5.6%

**Q.** What about the inhibition at 100 µM [1] of the same compound?
**A.** 71.7 ± 7%
